{
  "source": "patent US10550096B2",
  "about": "“Tetrahydroisoquinolines as PRMT5 inhibitors” (CTXT PTY LTD, priority 2016, dated 2020)",
  "key": {"[1]": {"target": "Full-length PRMT5 enzyme co-expressed with His6-MEP50 (Homo sapiens (Human), UniProt O14744)", "sequence (O14744 whole entry)": "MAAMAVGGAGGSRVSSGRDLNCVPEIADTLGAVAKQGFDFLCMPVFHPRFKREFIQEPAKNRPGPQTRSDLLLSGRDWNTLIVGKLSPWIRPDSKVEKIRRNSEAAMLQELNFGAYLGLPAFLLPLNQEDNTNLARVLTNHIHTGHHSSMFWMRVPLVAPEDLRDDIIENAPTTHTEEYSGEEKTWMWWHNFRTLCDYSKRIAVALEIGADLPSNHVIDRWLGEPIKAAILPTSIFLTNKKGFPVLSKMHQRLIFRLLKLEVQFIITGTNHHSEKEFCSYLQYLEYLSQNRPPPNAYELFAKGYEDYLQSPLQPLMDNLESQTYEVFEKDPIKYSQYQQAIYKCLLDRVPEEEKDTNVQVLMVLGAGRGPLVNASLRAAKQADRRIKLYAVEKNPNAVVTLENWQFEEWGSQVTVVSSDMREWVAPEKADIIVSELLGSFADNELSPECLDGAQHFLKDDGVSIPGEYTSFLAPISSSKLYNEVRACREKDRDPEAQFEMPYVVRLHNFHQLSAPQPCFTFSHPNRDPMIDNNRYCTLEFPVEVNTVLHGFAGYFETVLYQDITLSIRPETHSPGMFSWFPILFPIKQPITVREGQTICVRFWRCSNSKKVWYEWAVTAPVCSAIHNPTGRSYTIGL", "sequence (Q9BQA1 whole entry partner)": "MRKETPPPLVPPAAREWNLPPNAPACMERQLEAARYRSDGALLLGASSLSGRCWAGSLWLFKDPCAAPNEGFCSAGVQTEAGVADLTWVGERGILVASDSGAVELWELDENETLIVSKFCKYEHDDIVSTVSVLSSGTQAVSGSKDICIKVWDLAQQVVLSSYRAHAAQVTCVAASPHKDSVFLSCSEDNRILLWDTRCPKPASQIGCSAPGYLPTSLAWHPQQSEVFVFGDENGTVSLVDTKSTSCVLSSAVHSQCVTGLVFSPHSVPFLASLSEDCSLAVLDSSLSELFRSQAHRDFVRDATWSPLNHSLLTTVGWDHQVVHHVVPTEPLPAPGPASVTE", "test": "PRMT5 Biochemical Assay", "conditions": "histone H4 derived peptide substrate 1 μM, 1 μM S-Adenosyl methionine, 4 hours at 37 degree Celsius, Transcreener EPIGEN fluorescence polarisation", "protocol": "Compounds of the invention may be tested for in vitro activity in the following assay:\nA histone H4 derived peptide is used as substrate (amino acid sequence: […]NH2). Full-length PRMT5 enzyme (NCBI Reference sequence NP_006100.2) was co-expressed with His6-MEP50 in insect cells and purified via Nickel immobilized metal affinity and gel filtration chromatography (“the enzyme”).\nThe 6 μL reactions are run in Greiner brand black 384-well low volume assay plates. All reactions contained assay buffer (phosphate buffered saline, 0.01% (v/v) Tween-20, 0.01% (w/v) albumin from chicken egg white, 1 mM Dithiothreitol, 1 μM peptide substrate, 1 μM S-Adenosyl methionine, and 15 ng/reaction enzyme, with the enzyme being omitted from negative control reactions. Compounds were added in a volume of 100 nL from dilution series prepared in DMSO, positive and negative control reactions receiving the same volume DMSO without compound. The plates were sealed with adhesive seals and incubated for 4 hours at 37 degree Celsius. Reaction progress was measured using the Transcreener™ EPIGEN methyltransferase assay (BellBrook Labs, Madison, Wis.) as recommended by the manufacturer. To each reaction 2 μL detection mix were added, containing coupling enzymes, fluorescence polarisation tracer, and AMP antibody. Plates were incubated for 90 minutes before being read on a PerkinElmer EnVision™ plate reader in fluorescence polarisation mode. IC50 values were obtained from the raw readings by calculating percent inhibition (% I) for each reaction relative to controls on the same plate (% I=(I−CN)/(CP−CN) where CN/CP are the averages of the negative/positive reactions, respectively), then fitting the % I data vs. compound concentration [I] to % I=(A+((B−A)/(1+((C/[I])^D)))) where A is the lower asymptote, B is the upper asymptote, C is the IC50 value, and D is the slope."}, "[2]": {"system": "TE11 cells", "test": "PRMT5 Biomarker Assay (symmetrical dimethylation of arginine, Histone H4 Arginine 3)", "format": "cell-based", "conditions": "Homo sapiens, TE-11; TE11 cell line, 72 hours incubation, Di-Methyl Histone H4 Arginine 3 level, high content imaging", "protocol": "Compounds of the invention may be tested for potency to inhibit symmetrical dimethylation of arginine in the following assay:\nThe cell line TE11 was seeded at a density of 6,000 cells per well in 96 well optical quality tissue culture plates in DME medium and 10% foetal bovine serum, and allowed to adhere for 5 hours under standard culture conditions (37 degree Celsius, 5% CO2). Compound dilutions prepared in DMSO were added to the medium, with negative control wells reserved for treatment with DMSO only and maximum inhibition controls receiving a potent PRMT5 inhibitor compound at 1 μM concentration. After incubation for 72 hours, the cells were fixed with 3.7% formaldehyde in PBS for 30 minutes at room temperature, washed with phosphate buffer saline and blocked with Odyssey blocking buffer (LI-COR, Lincoln, Nebr.). Rabbit anti-Di-Methyl Histone H4 Arginine 3 specific antibody (Epigentek) in Odyssey blocking buffer was added and incubated for 14 hours at 4 degree Celsius. […] Plates were washed and read on a PerkinElmer Envision 2103 in fluorescence intensity scanning mode (24 scans across the well area). […] Using a Columbus image analysis pipeline, individual nuclei were located by Hoechst 33342 stain and the methylation level was calculated from the Alexa647-related intensity in the same area. […]"}},
  "note": "Counter-ions that a name gives are not always drawn.",
  "data": [
    {"smiles": "Cc1nn(C[C@@H](O)[C@@H]2Cc3ccccc3CN2)c(=O)c2ccccc12", "note": "[Example 2, 2-((R)-2-Hydroxy-2-((S)-1,2,3,4-tetrahydroisoquinolin-3-yl)ethyl)-4-methylphthalazin-1(2H)-one hydrochloride]", "values": [
      {"measurement": "IC50", "setting": "[1]", "result": 7320, "unit": "nM"}
    ]},
    {"smiles": "CCc1nn(C[C@@H](O)[C@@H]2Cc3ccccc3CN2)c(=O)c2ccc(C(=O)N3C4CCC3COC4)cc12", "note": "[Example 3, 6-(3-Oxa-8-azabicyclo[3.2.1]octane-8-carbonyl)-4-ethyl-2-((R)-2-hydroxy-2-((S)-1,2,3,4-tetrahydroisoquinolin-3-yl)ethyl)phthalazin-1(2H)-one hydrochloride]", "values": [
      {"measurement": "IC50", "setting": "[1]", "result": 39, "unit": "nM"},
      {"measurement": "IC50", "setting": "[2]", "result": 1, "unit": "nM"}
    ]},
    {"smiles": "O=C(c1ccc2c(=O)n(C[C@@H](O)[C@@H]3Cc4ccccc4CN3)ccc2c1)N1C2CCC1COC2", "note": "[Example 1, 6-(3-Oxa-8-azabicyclo[3.2.1]octane-8-carbonyl)-2-((R)-2-hydroxy-2-((S)-1,2,3,4-tetrahydroisoquinolin-3-yl)ethyl)isoquinolin-1(2H)-one hydrochloride]", "values": [
      {"measurement": "IC50", "setting": "[1]", "result": 533, "unit": "nM"},
      {"measurement": "IC50", "setting": "[2]", "result": 430, "unit": "nM"}
    ]}
  ]
}
